PubChem BioAssay (NCI)
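Five concentrations, 48 hours, 96-well plates. TGI: total growth inhibition.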

Tests used:
Assay in all cases: NCI-60 cell line screen, 48 h
ACHN renal = test system: ACHN renal
A549 NSCLC = test system: A549 NSCLC
OVCAR-4 ovarian = test system: OVCAR-4 ovarian
SK-MEL-5 melanoma = test system: SK-MEL-5 melanoma
NCI-H226 lung = test system: NCI-H226 lung
MOLT-4 leukemia = test system: MOLT-4 leukemia
MDA-MB-435 = test system: MDA-MB-435
OVCAR-5 ovarian = test system: OVCAR-5 ovarian
SF-295 CNS = test system: SF-295 CNS
HT29 colon = test system: HT29 colon
T-47D breast = test system: T-47D breast
SK-MEL-2 melanoma = test system: SK-MEL-2 melanoma
SF-539 CNS = test system: SF-539 CNS
SNB-75 CNS = test system: SNB-75 CNS
SW-620 colon = test system: SW-620 colon
UACC-62 melanoma = test system: UACC-62 melanoma
SK-MEL-28 melanoma = test system: SK-MEL-28 melanoma
BT-549 breast = test system: BT-549 breast
U251 CNS = test system: U251 CNS
UACC-257 melanoma = test system: UACC-257 melanoma
HL-60(TB) leukemia = test system: HL-60(TB) leukemia
SNB-19 CNS = test system: SNB-19 CNS
NCI-H522 lung = test system: NCI-H522 lung
SR leukemia = test system: SR leukemia
MALME-3M melanoma = test system: MALME-3M melanoma
SK-OV-3 ovarian = test system: SK-OV-3 ovarian
HS 578T breast = test system: HS 578T breast
786-0 renal = test system: 786-0 renal
UO-31 renal = test system: UO-31 renal
LOX IMVI melanoma = test system: LOX IMVI melanoma
TK-10 renal = test system: TK-10 renal
HCT-15 colon = test system: HCT-15 colon
MDA-MB-231 breast = test system: MDA-MB-231 breast
RPMI-8226 leukemia = test system: RPMI-8226 leukemia
EKVX NSCLC = test system: EKVX NSCLC
OVCAR-8 ovarian = test system: OVCAR-8 ovarian
MDA-N = test system: MDA-N
SN12C renal = test system: SN12C renal
NCI-H460 lung = test system: NCI-H460 lung
DU-145 prostate = test system: DU-145 prostate
HCC-2998 colon = test system: HCC-2998 colon
KM12 colon = test system: KM12 colon
COLO 205 colon = test system: COLO 205 colon
RXF 393 renal = test system: RXF 393 renal
NCI-H23 lung = test system: NCI-H23 lung
HOP-62 NSCLC = test system: HOP-62 NSCLC
SF-268 CNS = test system: SF-268 CNS
IGROV1 ovarian = test system: IGROV1 ovarian
PC-3 prostate = test system: PC-3 prostate
CCRF-CEM leukemia = test system: CCRF-CEM leukemia
CAKI-1 renal = test system: CAKI-1 renal
MCF7 breast = test system: MCF7 breast
HOP-92 NSCLC = test system: HOP-92 NSCLC
OVCAR-3 ovarian = test system: OVCAR-3 ovarian
K-562 leukemia = test system: K-562 leukemia
M14 melanoma = test system: M14 melanoma
NCI/ADR-RES ovarian = test system: NCI/ADR-RES ovarian
HCT-116 colon = test system: HCT-116 colon
A498 renal = test system: A498 renal

## NC(N)=N/N=C(\c1ccc(F)cc1)c1ccc(C(F)(F)F)cc1
ACHN renal
  TGI: 10.1 µM
A549 NSCLC
  TGI: 4.96 µM
OVCAR-4 ovarian
  TGI: 15.9 µM
SK-MEL-5 melanoma
  TGI: 3.67 µM
NCI-H226 lung
  TGI: 0.783 µM
MOLT-4 leukemia
  TGI: 1.44 µM
MDA-MB-435
  TGI: 0.298 µM
OVCAR-5 ovarian
  TGI: 9.74 µM
SF-295 CNS
  TGI: 0.817 µM
HT29 colon
  TGI: 4.98 µM
T-47D breast
  TGI: 5.82 µM
SK-MEL-2 melanoma
  TGI: 4.06 µM
SF-539 CNS
  TGI: 0.749 µM
SNB-75 CNS
  TGI: 7.77 µM
SW-620 colon
  TGI: 2.04 µM
UACC-62 melanoma
  TGI: 1.55 µM
SK-MEL-28 melanoma
  TGI: 8 µM
BT-549 breast
  TGI: 4.02 µM
U251 CNS
  TGI: 4.72 µM
UACC-257 melanoma
  TGI: 4.63 µM
HL-60(TB) leukemia
  TGI: 0.762 µM
SNB-19 CNS
  TGI: 14.3 µM
NCI-H522 lung
  TGI: 0.525 µM
SR leukemia
  TGI: 1.47 µM
MALME-3M melanoma
  TGI: 2.53 µM
SK-OV-3 ovarian
  TGI: 4.94 µM
HS 578T breast
  TGI: 1.85 µM
786-0 renal
  TGI: 1.59 µM
UO-31 renal
  TGI: 4.13 µM
LOX IMVI melanoma
  TGI: 1.64 µM
TK-10 renal
  TGI: 13.6 µM
HCT-15 colon
  TGI: 7.45 µM
MDA-MB-231 breast
  TGI: 1.15 µM
RPMI-8226 leukemia
  TGI: 2.21 µM
EKVX NSCLC
  TGI: 11.3 µM
OVCAR-8 ovarian
  TGI: 3.09 µM
MDA-N
  TGI: 0.494 µM
SN12C renal
  TGI: 9.05 µM
NCI-H460 lung
  TGI: 2.09 µM
DU-145 prostate
  TGI: 7.76 µM
HCC-2998 colon
  TGI: 1.75 µM
KM12 colon
  TGI: 2.04 µM
COLO 205 colon
  TGI: 0.877 µM
RXF 393 renal
  TGI: 0.633 µM
NCI-H23 lung
  TGI: 7.29 µM
HOP-62 NSCLC
  TGI: 0.955 µM
SF-268 CNS
  TGI: 9.96 µM
IGROV1 ovarian
  TGI: 1.49 µM
PC-3 prostate
  TGI: 5.51 µM
CCRF-CEM leukemia
  TGI: 5.43 µM
CAKI-1 renal
  TGI: 4.98 µM
MCF7 breast
  TGI: 2.15 µM
HOP-92 NSCLC
  TGI: 8.59 µM
OVCAR-3 ovarian
  TGI: 1.59 µM
K-562 leukemia
  TGI: 2.08 µM
M14 melanoma
  TGI: 1.35 µM
NCI/ADR-RES ovarian
  TGI: 4.35 µM
HCT-116 colon
  TGI: 1.28 µM
A498 renal
  TGI: 0.333 µM

## O=C1NC(N/N=C\C(O)C(O)C(O)C(O)CO)=N/C1=C\c1ccc(Cl)cc1 (configuration not stated)
ACHN renal
  TGI: > 59.1 µM
A549 NSCLC
  TGI: > 73.3 µM
OVCAR-4 ovarian
  TGI: 26 µM
SK-MEL-5 melanoma
  TGI: 31.4 µM
NCI-H226 lung
  TGI: 10.6 µM
MOLT-4 leukemia
  TGI: 24.6 µM
MDA-MB-435
  TGI: 34.7 µM
OVCAR-5 ovarian
  TGI: > 66.6 µM
SF-295 CNS
  TGI: 31.5 µM
HT29 colon
  TGI: 36.3 µM
T-47D breast
  TGI: 14.1 µM
SK-MEL-2 melanoma
  TGI: 23.1 µM
SF-539 CNS
  TGI: 1.01 µM
SNB-75 CNS
  TGI: 6.04 µM
SW-620 colon
  TGI: > 100 µM
UACC-62 melanoma
  TGI: 3.14 µM
SK-MEL-28 melanoma
  TGI: > 100 µM
BT-549 breast
  TGI: 31.4 µM
UACC-257 melanoma
  TGI: 37.4 µM
HL-60(TB) leukemia
  TGI: > 72.1 µM
SNB-19 CNS
  TGI: 10.9 µM
NCI-H522 lung
  TGI: 7.46 µM
SR leukemia
  TGI: 19.3 µM
MALME-3M melanoma
  TGI: 5.95 µM
SK-OV-3 ovarian
  TGI: 40.6 µM
HS 578T breast
  TGI: 6.68 µM
786-0 renal
  TGI: 18.1 µM
UO-31 renal
  TGI: > 79.9 µM
LOX IMVI melanoma
  TGI: 12.8 µM
TK-10 renal
  TGI: 27.4 µM
HCT-15 colon
  TGI: > 100 µM
MDA-MB-231 breast
  TGI: 15.2 µM
RPMI-8226 leukemia
  TGI: > 100 µM
EKVX NSCLC
  TGI: 38.9 µM
OVCAR-8 ovarian
  TGI: 5.63 µM
MDA-N
  TGI: 9.99 µM
SN12C renal
  TGI: 15.3 µM
NCI-H460 lung
  TGI: 32.3 µM
DU-145 prostate
  TGI: 91.5 µM
HCC-2998 colon
  TGI: 36.3 µM
KM12 colon
  TGI: > 80.7 µM
COLO 205 colon
  TGI: 23.7 µM
RXF 393 renal
  TGI: 25.6 µM
NCI-H23 lung
  TGI: 21.2 µM
HOP-62 NSCLC
  TGI: 7.5 µM
SF-268 CNS
  TGI: 10.5 µM
IGROV1 ovarian
  TGI: 31.9 µM
PC-3 prostate
  TGI: 18.5 µM
CCRF-CEM leukemia
  TGI: > 73.1 µM
CAKI-1 renal
  TGI: > 100 µM
MCF7 breast
  TGI: > 100 µM
HOP-92 NSCLC
  TGI: 7.44 µM
OVCAR-3 ovarian
  TGI: 6.88 µM
K-562 leukemia
  TGI: > 100 µM
M14 melanoma
  TGI: 18.1 µM
NCI/ADR-RES ovarian
  TGI: > 100 µM
HCT-116 colon
  TGI: > 40.4 µM
A498 renal
  TGI: 39.9 µM
